Experimental data as given in ChEMBL document CHEMBL1145470, “Identification of the novel narrow-spectrum beta-lactamase SCO-1 in Acinetobacter spp. from Argentina” (Antimicrob Agents Chemother, 2007).
≈ marks a conversion by molar mass, not a printed value.

Assays:
[1] = Inhibition of Acinetobacter johnsonii SCO1
[2] = tested on: Acinetobacter johnsonii; experiment: Antibacterial activity against Acinetobacter johnsonii 7037 expressing SCO1 by agar dilution technique; assay type: functional
[3] = tested on: Escherichia coli; experiment: Antibacterial activity against Escherichia coli DH10B expressing SCO1 by agar dilution technique; assay type: functional
[4] = tested on: Escherichia coli; experiment: Antibacterial activity against Escherichia coli DH10B by agar dilution technique; assay type: functional
[5] = tested on: Acinetobacter johnsonii; experiment: Activity of Acinetobacter johnsonii SCO1
[6] = tested on: Acinetobacter johnsonii; experiment: Ratio of kcat to Km for Acinetobacter johnsonii SCO1

Compound	IC50 [1] [µM]	MIC [2] [µg/mL]	MIC [3] [µg/mL]	MIC [4] [µg/mL]	Km [5] [µM]	kcat [5] [s⁻¹]	Ratio [6] [mM⁻¹ s⁻¹]
C[C@]1(Cn2ccnn2)[C@H](C(=O)O)N2C(=O)C[C@H]2S1(=O)=O [TAZOBACTAM]	1.2	–	–	–	–	–	–
CCN1CCN(C(=O)N[C@@H](C(=O)N[C@@H]2C(=O)N3[C@@H]2SC(C)(C)[C@@H]3C(=O)O)c2ccccc2)C(=O)C1=O [PIPERACILLIN]	–	64 (≈ 124 µM)	128 (≈ 247 µM)	1 (≈ 1.93 µM)	10	0.4	40
CC1(C)S[C@@H]2[C@H](NC(=O)[C@H](C(=O)O)c3ccsc3)C(=O)N2[C@H]1C(=O)O [TICARCILLIN]	–	> 512	> 512	2 (≈ 5.2 µM)	80	35	450
C[C@@H](O)[C@H]1C(=O)N2C(C(=O)O)=C(SCCNC=N)C[C@H]12 [IMIPENEM ANHYDROUS]	–	0.12 (≈ 0.401 µM)	–	–	3800	0.03	0.008
C[C@H]1[C@H](NC(=O)/C(=N\OC(C)(C)C(=O)O)c2csc(N)n2)C(=O)N1S(=O)(=O)O [AZTREONAM]	–	> 512	–	–	–	< 0.01	–
CO/N=C(\C(=O)N[C@@H]1C(=O)N2C(C(=O)[O-])=C(C[N+]3(C)CCCC3)CS[C@H]12)c1csc(N)n1 [CEFEPIME]	–	> 512	0.12 (≈ 0.25 µM)	–	> 2000	> 1.5	0.8
C[C@@H](O)[C@H]1C(=O)N2C(C(=O)O)=C(S[C@@H]3CN[C@H](C(=O)N(C)C)C3)[C@H](C)[C@H]12	–	–	–	–	–	< 0.01	–
CO/N=C(\C(=O)N[C@@H]1C(=O)N2C(C(=O)O)=C(COC(N)=O)CS[C@H]12)c1ccco1 [CEFUROXIME]	–	> 512	4 (≈ 9.43 µM)	2 (≈ 4.71 µM)	650	0.05	0.08
CC(=O)OCC1=C(C(=O)O)N2C(=O)[C@@H](NC(=O)Cc3cccs3)[C@H]2SC1 [CEPHALOTHIN]	–	> 512	8 (≈ 20.2 µM)	2 (≈ 5.04 µM)	120	0.1	1
CO[C@@]1(NC(=O)Cc2cccs2)C(=O)N2C(C(=O)O)=C(COC(N)=O)CS[C@@H]21 [CEFOXITIN]	–	> 512	4 (≈ 9.36 µM)	4 (≈ 9.36 µM)	–	< 0.01	–
CC1(C)S[C@@H]2[C@H](NC(=O)Cc3ccccc3)C(=O)N2[C@H]1C(=O)O	–	–	–	–	20	150	7500
CC(C)(O/N=C(\C(=O)N[C@@H]1C(=O)N2C(C(=O)[O-])=C(C[n+]3ccccc3)CS[C@H]12)c1csc(N)n1)C(=O)O [CEFTAZIDIME]	–	> 512	0.5 (≈ 0.915 µM)	0.06 (≈ 0.11 µM)	600	0.3	0.5
CC1(C)S[C@@H]2[C@H](NC(=O)[C@H](N)c3ccccc3)C(=O)N2[C@H]1C(=O)O	–	–	–	–	40	270	6700
CC1(C)S[C@@H]2[C@H](NC(=O)[C@H](N)c3ccc(O)cc3)C(=O)N2[C@H]1C(=O)O [AMOXICILLIN]	–	> 512	> 512	2 (≈ 5.47 µM)	–	–	–
O=C(O)[C@H]1/C(=C/CO)O[C@@H]2CC(=O)N21 [CLAVULANIC ACID]	0.3	–	–	–	–	–	–
CO/N=C(\C(=O)N[C@@H]1C(=O)N2C(C(=O)O)=C(COC(C)=O)CS[C@H]12)c1csc(N)n1 [CEFOTAXIME]	–	> 512	0.25 (≈ 0.549 µM)	0.12 (≈ 0.263 µM)	2000	0.1	0.05
